± gives the standard deviation of the averaged measurements.
How the values were obtained:
[1] = system: Homo sapiens (human subject panel, olfactory perception); experiment: perceived odor familiarity rating (rating 0-100); higher = more familiar
Protocol: (§1)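 Human olfactory psychophysics. 55 healthy subjects (after excluding 6 low performers) sniffed 1 mL of each odorant diluted in paraffin oil (vials, two dilutions per molecule, 20 molecules presented twice). Each subject rated intensity, pleasantness and familiarity on a 0-100 slider, starting at 50 and required to move. Ratings were given only when the subject reported detecting a smell; per-subject ratings are averaged over subjects.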

[2] = system: Homo sapiens (human subject panel, olfactory perception); experiment: perceived odor pleasantness rating (rating 0-100); higher = more pleasant
Protocol: as §1

[3] = system: Homo sapiens (human subject panel, olfactory perception); experiment: perceived odor intensity rating (rating 0-100); higher = stronger perceived smell
Protocol: as §1

[4] = odor dilution in paraffin oil: 1/1,000
[5] = odor dilution in paraffin oil: 1/100,000
[6] = odor dilution in paraffin oil: 1/10
[7] = odor dilution in paraffin oil: 1/10,000,000

SMILES	perceived odor familiarity rating [1, 4]	perceived odor familiarity rating [1, 5]	perceived odor pleasantness rating [2, 4]	perceived odor pleasantness rating [2, 5]	perceived odor intensity rating [3, 4]	perceived odor intensity rating [3, 5]	perceived odor familiarity rating [1, 6]	perceived odor pleasantness rating [2, 6]	perceived odor intensity rating [3, 6]	perceived odor familiarity rating [1, 7]	perceived odor pleasantness rating [2, 7]	perceived odor intensity rating [3, 7]
C=CCOC(=O)/C=C/c1ccccc1 [Allyl cinnamate]	40.5 ± 28	44 ± 27	52.4 ± 28	52.4 ± 24	57 ± 32	46.8 ± 30						
CC(=O)OC(C)C [isopropyl acetate (replicate)]	46.2 ± 33	44.5 ± 32	41.3 ± 23	49.9 ± 25	49.4 ± 34	22.7 ± 22						
CCCCCOC(=O)CCCCC [Amyl hexanoate]	38.1 ± 30		53.8 ± 27		28.8 ± 29		39.1 ± 30	44.6 ± 28	67.3 ± 25			
CCc1nccnc1C [2-Ethyl-3-methylpyrazine]	55.7 ± 32	60 ± 31	31.2 ± 26	43.9 ± 29	82.1 ± 17	70.5 ± 21						
O=C1CCCO1 [4-Hydroxybutanoic acid lactone]	44.6 ± 31	28.2 ± 30	28.9 ± 19	46.1 ± 25	47 ± 34	19.9 ± 24						
CCOc1nccs1 [2-Ethoxythiazole]	45.2 ± 30	42.5 ± 28	24.3 ± 23	37.6 ± 25	79.9 ± 19	52.7 ± 30						
COc1nccnc1C [2-Methoxy-3-methylpyrazine]	63 ± 31	64.6 ± 31	34.3 ± 34	52.6 ± 31	87.9 ± 13	79.5 ± 17						
CCCCCCCCC(=O)OC [Methyl nonanoate]	50.8 ± 30	45.9 ± 30	57.8 ± 26	57.9 ± 24	57 ± 28	28.8 ± 30						
CCCCC1OC(=O)CC1C (stereo not given) [Whiskey lactone]	62.2 ± 30	50.6 ± 33	69.7 ± 22	60.2 ± 27	71.3 ± 23	51.8 ± 29						
CCCCCCCCCC1CCCC(=O)O1 (stereo not given) [delta-Tetradecalactone]	47.2 ± 27	33 ± 25	45.5 ± 24	48.1 ± 22	33.7 ± 26	20.7 ± 24						
CCCC(O)CC (stereo not given) [3-hexanol (replicate)]	50.5 ± 34	34.2 ± 26	32.3 ± 22	46.6 ± 22	68.9 ± 28	30.2 ± 30						
O=c1ccc2ccccc2o1 [coumarin]	55.9 ± 31		65.1 ± 25		62.8 ± 26		63.8 ± 30	67.2 ± 26	77.5 ± 16			
CC/C=C\CCOC(=O)Cc1ccccc1 [cis-3-Hexenyl phenylacetate]	41.3 ± 30	37.5 ± 32	40.1 ± 26	52.2 ± 25	51 ± 31	14.4 ± 23						
Cc1ccc(C=O)o1 [5-Methylfurfural]	52.6 ± 31	36 ± 29	59.3 ± 24	45.8 ± 23	59 ± 31	17.9 ± 24						
CCCC(C)C(=O)OCC (stereo not given) [Ethyl 2-methylpentanoate]	67.2 ± 24	50.8 ± 28	76.8 ± 20	64.9 ± 21	67.9 ± 22	49.4 ± 24						
CCCCCCOC(=O)c1ccccc1 [Hexyl benzoate]	37.8 ± 28		37.4 ± 27		40.7 ± 33		47.5 ± 28	34.7 ± 25	69.5 ± 25			
CC(O)c1ccccc1 (stereo not drawn) [alpha-Methylbenzyl alcohol]	45 ± 32	30.4 ± 30	50.4 ± 26	44.5 ± 23	48.4 ± 30	15.4 ± 16						
O=C(OCc1ccccc1)c1ccccc1 [Benzyl benzoate]	42.4 ± 31		48.6 ± 21		19.8 ± 24		38.5 ± 26	46.9 ± 24	53.3 ± 30			

SMILES	perceived odor familiarity rating [1, 4]	perceived odor familiarity rating [1, 5]	perceived odor pleasantness rating [2, 4]	perceived odor pleasantness rating [2, 5]	perceived odor intensity rating [3, 4]	perceived odor intensity rating [3, 5]	perceived odor familiarity rating [1, 6]	perceived odor pleasantness rating [2, 6]	perceived odor intensity rating [3, 6]	perceived odor familiarity rating [1, 7]	perceived odor pleasantness rating [2, 7]	perceived odor intensity rating [3, 7]
CCCCCCCCCCCO [1-undecanol]	37.1 ± 30		41.9 ± 28		42.8 ± 32		51 ± 32	41 ± 28	74.9 ± 24			
C=CCOC(=O)c1ccccc1N [Allyl anthranilate]	45.9 ± 29	33.4 ± 26	52 ± 27	50.7 ± 25	55.1 ± 31	16.4 ± 19						
CCCCC/C=C/CO [trans-2-Octen-1-ol]	46.4 ± 32	31 ± 31	36.5 ± 28	50.8 ± 22	69.6 ± 26	27.6 ± 28						
CCCC(=O)OCC(COC(=O)CCC)OC(=O)CCC [Tributyrin]	49.9 ± 30	36.9 ± 30	22.2 ± 22	39.5 ± 23	68.8 ± 28	31.9 ± 29						
C=CCOC(=O)/C(C)=C/C [Allyl tiglate]	49.6 ± 31	46.1 ± 32	41.1 ± 28	44.3 ± 23	71.9 ± 24	48 ± 29						
Cc1ccc(C(C)C)cc1O [Carvacrol]	62.7 ± 31	58.8 ± 32	48 ± 28	53.2 ± 24	74.1 ± 20	50.4 ± 26						
CC/C=C\CCOC(=O)C(C)O (stereo not drawn) [cis-3-Hexenyl lactate]	57.1 ± 31	38.6 ± 30	51.7 ± 26	46.7 ± 22	67.2 ± 29	30.3 ± 28						
CC(=O)c1c(C)c([N+](=O)[O-])c(C(C)(C)C)c([N+](=O)[O-])c1C [musk ketone]	50.2 ± 27		63.1 ± 25		49.3 ± 32		53 ± 30	65.2 ± 23	48.1 ± 34			
CO [methanol]	30.9 ± 25		42.7 ± 22		18 ± 24		37.9 ± 29	39.5 ± 23	35 ± 30			
COc1cc(C)ccc1C(C)C [1-Methyl-3-methoxy-4-isopropylbenzene]	51.6 ± 30	42.9 ± 35	43.8 ± 21	47.5 ± 18	45.5 ± 28	23.1 ± 25						
COc1cc(C)ccc1O [2-Methoxy-4-methylphenol]		53.6 ± 30		39.6 ± 22		60.2 ± 27				37.5 ± 32	43.9 ± 23	27 ± 29
CC(C)CC(=O)O [isovaleric acid]		54.3 ± 33		12.9 ± 19		82 ± 20				48 ± 31	20.7 ± 22	58.5 ± 30
CCCCCCCCCCC [undecane]	35 ± 29		53.3 ± 23		21 ± 26		41.7 ± 32	32.3 ± 21	56.4 ± 31			
CCCCOC(=O)Cc1ccccc1 [Butyl phenylacetate]	51.6 ± 30	41.3 ± 32	47.2 ± 28	45.9 ± 22	53.1 ± 31	24.8 ± 25						
C=CCc1ccc(OC(C)=O)c(OC)c1 [Eugenyl Acetate]	61.4 ± 28	37.7 ± 30	63.9 ± 23	58 ± 25	52.3 ± 30	21.1 ± 28						
CC/C=C\CCCCO [cis-5-Octen-1-ol]	69.2 ± 27	59.5 ± 29	59.3 ± 28	66.6 ± 21	75.7 ± 20	40.6 ± 30						
O=Cc1ccccc1O [salicylaldehyde]	51.7 ± 31	39.9 ± 28	30.6 ± 26	39.5 ± 23	77.9 ± 19	53.5 ± 28						
